How the values were obtained:
[1] = target: Casein kinase I isoform alpha (Homo sapiens, UniProt P48729); experiment: Selectivity interaction (Kinase panel (KiNativ target engagement assay in Jurkat cells)) EUB0001635a CSNK1A1; format: cell-based; details: Selectivity number of off-targets 0.0, Selectivity number of targets 233.0, Source Knowledge https://www.sciencedirect.com/science/article/pii/S2451945619300674?via%3Dihub, at 1 µM
[2] = target: Serine/threonine-protein kinase 26 (Homo sapiens, UniProt Q9P289); experiment: Selectivity interaction (ActivX KiNativ screen (kinase selectivity in THP-1 cell lysates)) EUB0000639a STK26; format: subcellular; details: lysate, at 0.01 µM
[3] = target: T1, Serine/threonine-protein kinase D3 (Homo sapiens) (UniProt O94806); experiment: Selectivity interaction (Kinase panel (Invitrogen)) EUB0000639a PRKD3; details: at 200 nM
T1 sequence (whole entry): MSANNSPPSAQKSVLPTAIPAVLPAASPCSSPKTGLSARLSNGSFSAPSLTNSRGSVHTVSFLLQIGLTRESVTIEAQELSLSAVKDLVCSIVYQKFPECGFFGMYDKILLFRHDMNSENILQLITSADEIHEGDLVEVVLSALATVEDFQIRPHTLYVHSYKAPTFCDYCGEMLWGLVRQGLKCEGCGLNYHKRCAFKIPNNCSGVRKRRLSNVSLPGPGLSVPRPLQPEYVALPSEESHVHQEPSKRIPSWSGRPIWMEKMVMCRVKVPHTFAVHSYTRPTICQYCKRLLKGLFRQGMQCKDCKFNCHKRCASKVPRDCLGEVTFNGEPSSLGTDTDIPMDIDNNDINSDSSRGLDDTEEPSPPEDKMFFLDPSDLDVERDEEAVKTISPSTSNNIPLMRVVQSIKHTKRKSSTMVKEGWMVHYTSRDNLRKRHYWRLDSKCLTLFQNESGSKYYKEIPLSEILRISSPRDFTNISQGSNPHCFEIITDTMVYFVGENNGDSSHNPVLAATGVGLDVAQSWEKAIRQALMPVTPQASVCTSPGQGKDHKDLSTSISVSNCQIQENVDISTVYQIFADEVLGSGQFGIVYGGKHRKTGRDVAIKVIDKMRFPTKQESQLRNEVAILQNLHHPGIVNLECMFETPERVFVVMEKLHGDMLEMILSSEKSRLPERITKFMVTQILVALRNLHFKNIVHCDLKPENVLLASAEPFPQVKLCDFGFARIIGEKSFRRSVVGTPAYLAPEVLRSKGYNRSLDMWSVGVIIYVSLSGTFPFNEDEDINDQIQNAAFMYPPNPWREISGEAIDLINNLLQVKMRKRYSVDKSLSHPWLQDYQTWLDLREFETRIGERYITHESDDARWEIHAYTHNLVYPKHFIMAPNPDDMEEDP

[4] = target: Calcium/calmodulin-dependent protein kinase kinase 2 (Homo sapiens) (UniProt Q96RR4); experiment: Selectivity interaction (KinomeScan (DiscoverX)) EUB0000092b CAMKK2; details: at 10 µM
[5] = target: Serine/threonine-protein kinase Nek7 (Homo sapiens) (UniProt Q8TDX7); experiment: Selectivity interaction (ActivX KiNativ screen (ex vivo kinase selectivity in human PBMCs)) EUB0001619a NEK7; format: cell-based; details: PBMC, at 1 µM
[6] = target: RAC-gamma serine/threonine-protein kinase (Homo sapiens, UniProt Q9Y243); experiment: Selectivity interaction (Upstate Kinase Profiler service (Millipore)) EUB0000056c AKT3; details: at 1 µM
[7] = target: Mitogen-activated protein kinase 14 (Homo sapiens, UniProt Q16539); experiment: Selectivity interaction (Upstate Kinase Profiler service (Millipore)) EUB0000056c MAPK14; details: at 1 µM
[8] = target: Mitogen-activated protein kinase kinase kinase kinase 4 (Homo sapiens, UniProt O95819); experiment: Selectivity interaction (KinomeScan (DiscoverX)) EUB0000695a MAP4K4; details: at 100 nM
[9] = target: T2, Tyrosine-protein kinase ZAP-70 (Homo sapiens) (UniProt P43403); experiment: Selectivity interaction (KinomeScan (DiscoverX)) EUB0000695a ZAP70; details: at 100 nM
T2 sequence (whole entry): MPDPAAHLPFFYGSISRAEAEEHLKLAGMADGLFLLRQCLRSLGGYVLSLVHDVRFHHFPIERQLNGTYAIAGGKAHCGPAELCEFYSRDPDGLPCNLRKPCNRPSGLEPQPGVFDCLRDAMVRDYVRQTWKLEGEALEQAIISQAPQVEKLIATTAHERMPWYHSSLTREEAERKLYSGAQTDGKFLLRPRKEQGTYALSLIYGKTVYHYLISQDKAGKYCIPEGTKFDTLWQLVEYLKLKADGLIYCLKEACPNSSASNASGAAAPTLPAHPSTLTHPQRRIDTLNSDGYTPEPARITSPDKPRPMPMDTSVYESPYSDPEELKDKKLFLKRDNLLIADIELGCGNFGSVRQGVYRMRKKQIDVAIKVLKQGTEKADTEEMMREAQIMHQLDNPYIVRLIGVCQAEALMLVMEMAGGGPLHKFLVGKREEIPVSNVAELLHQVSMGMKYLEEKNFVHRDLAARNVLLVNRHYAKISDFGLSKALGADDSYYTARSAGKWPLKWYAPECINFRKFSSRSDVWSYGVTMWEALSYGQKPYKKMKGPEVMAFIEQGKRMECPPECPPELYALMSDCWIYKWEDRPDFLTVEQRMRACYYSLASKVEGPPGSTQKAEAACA

Chain of Casein kinase I isoform alpha (P48729 2-337 limits assumed): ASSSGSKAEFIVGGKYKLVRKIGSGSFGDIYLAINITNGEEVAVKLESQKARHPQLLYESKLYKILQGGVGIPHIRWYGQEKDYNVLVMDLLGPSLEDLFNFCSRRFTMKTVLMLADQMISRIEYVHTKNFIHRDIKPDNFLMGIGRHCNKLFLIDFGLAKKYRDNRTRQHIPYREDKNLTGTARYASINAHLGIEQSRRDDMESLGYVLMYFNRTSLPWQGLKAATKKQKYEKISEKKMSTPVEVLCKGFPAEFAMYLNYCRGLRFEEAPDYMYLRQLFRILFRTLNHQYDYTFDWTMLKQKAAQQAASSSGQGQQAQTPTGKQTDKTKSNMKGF
Chain of Serine/threonine-protein kinase Nek7 (Homo sapiens) (Q8TDX7 whole entry, looked up): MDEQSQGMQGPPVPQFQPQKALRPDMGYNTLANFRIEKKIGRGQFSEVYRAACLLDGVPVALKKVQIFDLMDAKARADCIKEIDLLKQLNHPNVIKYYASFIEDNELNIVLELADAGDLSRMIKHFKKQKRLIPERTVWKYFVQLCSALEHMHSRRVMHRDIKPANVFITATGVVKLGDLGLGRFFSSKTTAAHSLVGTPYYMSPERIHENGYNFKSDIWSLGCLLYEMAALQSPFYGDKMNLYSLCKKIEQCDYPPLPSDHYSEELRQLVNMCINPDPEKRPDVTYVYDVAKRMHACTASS
Chain of Mitogen-activated protein kinase kinase kinase kinase 4 (O95819 2-1239 limits assumed): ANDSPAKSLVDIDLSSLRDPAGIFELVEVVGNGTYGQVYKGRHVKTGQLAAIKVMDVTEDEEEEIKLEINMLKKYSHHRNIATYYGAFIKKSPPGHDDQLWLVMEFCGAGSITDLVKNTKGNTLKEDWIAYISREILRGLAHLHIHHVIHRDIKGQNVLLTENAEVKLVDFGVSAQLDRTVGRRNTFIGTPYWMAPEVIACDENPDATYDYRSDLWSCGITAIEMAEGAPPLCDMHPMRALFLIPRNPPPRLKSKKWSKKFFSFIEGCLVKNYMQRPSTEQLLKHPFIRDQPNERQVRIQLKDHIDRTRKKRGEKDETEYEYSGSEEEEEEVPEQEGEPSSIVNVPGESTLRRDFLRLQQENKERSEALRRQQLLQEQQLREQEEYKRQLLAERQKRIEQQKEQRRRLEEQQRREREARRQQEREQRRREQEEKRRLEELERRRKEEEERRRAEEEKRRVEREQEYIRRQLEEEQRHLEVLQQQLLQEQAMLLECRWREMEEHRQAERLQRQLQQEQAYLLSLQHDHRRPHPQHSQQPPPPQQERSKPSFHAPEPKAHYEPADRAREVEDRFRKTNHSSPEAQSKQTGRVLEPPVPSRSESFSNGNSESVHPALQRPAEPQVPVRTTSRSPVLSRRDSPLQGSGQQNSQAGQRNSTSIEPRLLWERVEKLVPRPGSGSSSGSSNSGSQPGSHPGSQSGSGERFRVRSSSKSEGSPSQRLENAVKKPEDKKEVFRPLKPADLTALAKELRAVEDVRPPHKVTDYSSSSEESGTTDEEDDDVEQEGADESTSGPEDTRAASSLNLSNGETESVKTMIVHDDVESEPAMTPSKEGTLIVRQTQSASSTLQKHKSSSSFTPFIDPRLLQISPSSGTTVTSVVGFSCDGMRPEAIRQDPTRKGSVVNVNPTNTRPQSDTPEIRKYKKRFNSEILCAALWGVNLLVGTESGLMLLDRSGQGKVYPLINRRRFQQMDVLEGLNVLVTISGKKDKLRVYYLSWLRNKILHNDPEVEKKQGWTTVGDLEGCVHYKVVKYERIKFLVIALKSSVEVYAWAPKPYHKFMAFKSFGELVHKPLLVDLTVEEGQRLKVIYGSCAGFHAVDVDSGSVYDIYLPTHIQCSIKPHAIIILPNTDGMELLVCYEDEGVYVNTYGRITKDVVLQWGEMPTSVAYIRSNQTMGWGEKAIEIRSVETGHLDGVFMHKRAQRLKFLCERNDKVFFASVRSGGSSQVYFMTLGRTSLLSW
Chain of Calcium/calmodulin-dependent protein kinase kinase 2 (Homo sapiens) (Q96RR4 2-588 limits assumed): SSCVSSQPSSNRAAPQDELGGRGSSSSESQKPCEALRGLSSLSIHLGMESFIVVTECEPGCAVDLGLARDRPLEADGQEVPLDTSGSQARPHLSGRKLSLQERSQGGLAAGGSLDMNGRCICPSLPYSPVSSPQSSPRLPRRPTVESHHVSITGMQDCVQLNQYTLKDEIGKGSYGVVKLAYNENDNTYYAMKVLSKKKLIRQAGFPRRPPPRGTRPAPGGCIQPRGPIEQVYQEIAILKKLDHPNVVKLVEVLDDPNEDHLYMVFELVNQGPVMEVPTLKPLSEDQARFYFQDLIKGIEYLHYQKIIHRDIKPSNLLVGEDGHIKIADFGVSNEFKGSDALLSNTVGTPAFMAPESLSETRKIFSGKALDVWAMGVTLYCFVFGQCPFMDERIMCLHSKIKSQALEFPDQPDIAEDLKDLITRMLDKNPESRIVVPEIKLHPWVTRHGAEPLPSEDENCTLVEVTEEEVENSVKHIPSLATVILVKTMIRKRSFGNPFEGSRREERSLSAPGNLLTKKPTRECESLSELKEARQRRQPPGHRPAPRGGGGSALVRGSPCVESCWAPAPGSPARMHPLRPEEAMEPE
Chain of Serine/threonine-protein kinase 26 (Q9P289 2-416 limits assumed): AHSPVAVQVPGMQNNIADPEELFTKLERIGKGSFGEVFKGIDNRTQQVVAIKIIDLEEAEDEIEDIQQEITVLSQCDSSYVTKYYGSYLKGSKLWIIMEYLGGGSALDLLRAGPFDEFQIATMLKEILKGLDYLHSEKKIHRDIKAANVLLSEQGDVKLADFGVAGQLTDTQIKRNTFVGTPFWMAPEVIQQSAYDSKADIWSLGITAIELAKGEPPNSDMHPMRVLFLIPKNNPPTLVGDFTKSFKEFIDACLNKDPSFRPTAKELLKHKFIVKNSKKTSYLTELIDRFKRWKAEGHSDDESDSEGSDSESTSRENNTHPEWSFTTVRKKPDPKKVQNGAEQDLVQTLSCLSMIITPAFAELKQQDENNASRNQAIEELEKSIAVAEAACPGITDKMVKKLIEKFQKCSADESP
Chain of Mitogen-activated protein kinase 14 (Q16539 whole entry): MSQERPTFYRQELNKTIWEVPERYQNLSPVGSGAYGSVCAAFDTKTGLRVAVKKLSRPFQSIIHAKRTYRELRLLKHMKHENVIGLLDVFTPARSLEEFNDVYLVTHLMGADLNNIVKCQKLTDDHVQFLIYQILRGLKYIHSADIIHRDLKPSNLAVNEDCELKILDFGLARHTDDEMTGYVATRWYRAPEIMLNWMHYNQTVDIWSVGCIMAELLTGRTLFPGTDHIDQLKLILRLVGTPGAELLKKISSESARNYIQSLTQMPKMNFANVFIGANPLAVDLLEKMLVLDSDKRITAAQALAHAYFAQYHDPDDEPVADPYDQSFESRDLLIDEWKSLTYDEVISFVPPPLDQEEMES
Chain of RAC-gamma serine/threonine-protein kinase (Q9Y243 whole entry): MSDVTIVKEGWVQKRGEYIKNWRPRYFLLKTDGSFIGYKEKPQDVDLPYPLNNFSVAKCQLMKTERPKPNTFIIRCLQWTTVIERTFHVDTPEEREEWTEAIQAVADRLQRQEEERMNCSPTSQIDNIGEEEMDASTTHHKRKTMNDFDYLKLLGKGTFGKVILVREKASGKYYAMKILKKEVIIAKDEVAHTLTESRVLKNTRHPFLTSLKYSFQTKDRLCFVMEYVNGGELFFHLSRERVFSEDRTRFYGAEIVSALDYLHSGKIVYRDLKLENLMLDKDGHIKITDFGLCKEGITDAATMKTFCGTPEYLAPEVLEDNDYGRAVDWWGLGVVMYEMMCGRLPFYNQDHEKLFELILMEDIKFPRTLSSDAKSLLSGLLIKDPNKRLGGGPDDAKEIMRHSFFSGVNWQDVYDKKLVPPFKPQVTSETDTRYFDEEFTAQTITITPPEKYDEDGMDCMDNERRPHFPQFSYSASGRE

Compound: C=CC(=O)Nc1ccc(C(=O)Nc2[nH]nc3c2CN(C(=O)N[C@H](CN(C)C)c2ccccc2)C3(C)C)cc1
- % of engagement [1]: -2%

Compound: CC[C@@H]1[C@H](F)C(=O)N[C@@H]1COc1nccc2cc(C(N)=O)c(OC)cc12 [ZIMLOVISERTIB]
- % of inhibition [2]: 19.6%
- % of inhibition [3]: 10.2%

Compound: CCC(=O)N1CCN(c2ccc(-n3c(=O)ccc4cnc5ccc(-c6cnc7ccccc7c6)cc5c43)cc2C(F)(F)F)CC1
- % of control [4]: 85%

Compound: N#Cc1cccc(-c2c[nH]c3ncnc(N4CCOCC4)c23)c1
- % of inhibition [5]: 7%

Compound: Cc1ccc(-c2ccc3c(ccc4sc5c(c43)NC[C@@H](C)NC5=O)n2)cn1
- % of inhibition [6]: 0%
- % of inhibition [7]: 0%

Compound: Cc1cc(F)c(C(=O)Nc2cccc(-c3nncn3C(C)C)n2)cc1-n1cnc(C2CC2)c1
- % of control [8]: 100%
- % of control [9]: 100%

From ChEMBL document CHEMBL5465560, “Selectivity Literature for EUbOPEN Chemogenomic Library” (2024)
